The values below come from patent US11306078B2, “Piperidine CXCR7 receptor modulators” (IDORSIA PHARMACEUTICALS LTD., priority 2016, dated 2022).

As usually defined, the IC50 is the point on the concentration scale where inhibition reaches its midpoint. Read a high IC50 as lower potency.

human chemokine receptor CXCR7, sequence (P25106 whole entry): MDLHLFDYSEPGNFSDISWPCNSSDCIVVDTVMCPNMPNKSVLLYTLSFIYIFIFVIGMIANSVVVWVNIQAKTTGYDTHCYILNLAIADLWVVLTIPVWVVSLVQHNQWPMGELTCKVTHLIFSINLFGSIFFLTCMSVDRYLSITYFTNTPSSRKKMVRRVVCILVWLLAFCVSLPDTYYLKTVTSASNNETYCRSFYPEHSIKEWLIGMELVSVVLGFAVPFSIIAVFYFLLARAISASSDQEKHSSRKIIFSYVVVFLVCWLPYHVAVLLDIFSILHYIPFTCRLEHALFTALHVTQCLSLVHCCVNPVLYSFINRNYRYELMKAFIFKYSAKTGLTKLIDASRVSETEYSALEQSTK

The assay concerns the target human chemokine receptor CXCR7 (Homo sapiens (Human), UniProt P25106). Briefly: Tango CXCR7-bla U2OS beta-arrestin recruitment assay (beta-lactamase reporter, FRET), antagonism of CXCL12/SDF1-α.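 Note: compounds preincubated 15 min before CXCL12 addition, then 22 h at 37 °C, FRET emission ratio read with CCF4-AM substrate after 2 h.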 The class given is cell-based. The following applies: antagonistic effect on CXCR7; Tango CXCR7-bla U2OS cells, CXCL12/SDF1-α at its EC80. (Recruitment of arrestin is a read-out of receptor activation apart from second messengers.)
For `O=C(N[C@@H]1CCN(C2CCC2)C[C@H]1C(=O)NC1(c2cccc(Cl)c2)COC1)c1cc(-c2ccc(F)cc2F)on1` [Example 4.094], half-maximal inhibition (IC50) required 201 nM.
With `O=C(N[C@@H]1CCN(C2CCCCC2)C[C@H]1C(=O)NC1(c2ccccn2)CC1)c1cn(-c2ccc(F)cc2F)nn1` (single isomer, unassigned) [Example 1.165b, (3R*,4R*)-1-Cyclohexyl-4-{[1-(2,4-difluoro-phenyl)-1H-[1,2,3]triazole-4-carbonyl]-amino}-piperidine-3-carboxylic acid (1-pyridin-2-yl-cyclopropyl)-amide] the figure was 537 nM.
Regarding `O=C(N[C@@H]1CCN(C2CCCCC2)C[C@H]1C(=O)NCc1cnccn1)c1cc(-c2ccc(F)cc2F)on1` (racemic) [Example 1.037, rac-(3R*,4R*)-1-Cyclohexyl-4-{[5-(2,4-difluoro-phenyl)-isoxazole-3-carbonyl]-amino}-piperidine-3-carboxylic acid (pyrazin-2-ylmethyl)-amide], 295 nM corresponded to half-maximal inhibition (IC50). Compared with the last compound, the IC50 is about 1.8-fold lower.
With `CC(C)NC(=O)[C@@H]1CN(C2CCCCC2)CC[C@H]1NC(=O)c1cc(-c2ccc(F)cc2F)on1` (racemic) [Example 1.008, rac-(3R*,4R*)-1-Cyclohexyl-4-{[5-(2,4-difluoro-phenyl)-isoxazole-3-carbonyl]-amino}-piperidine-3-carboxylic acid isopropylamide] the figure was 394 nM.
The same measure for `O=C(N[C@@H]1CCN(C2CCCCC2)C[C@H]1C(=O)NC1(c2ccc(F)cn2)CC1)c1cn(-c2ccc(F)cc2F)nn1` (racemic) [Example 1.142, rac-(3R*,4R*)-1-Cyclohexyl-4-{[1-(2,4-difluoro-phenyl)-1H-[1,2,3]triazole-4-carbonyl]-amino}-piperidine-3-carboxylic acid [1-(5-fluoro-pyridin-2-yl)-cyclopropyl]-amide]: 472 nM; for `CN(CCc1ccccc1)C(=O)[C@@H]1CN([C@@H]2CCCC[C@H]2O)CC[C@H]1NC(=O)c1cc(-c2ccc(F)cc2F)on1` [Example 2.05]: 15 nM; for `Cc1cnc(CNC(=O)[C@@H]2CN(C3CCCCC3)CC[C@H]2NC(=O)c2cc(-c3ccc(F)cc3F)on2)s1` [Example 1.02]: 198 nM.
The compound `O=C(N[C@@H]1CCN(CC2CC2)C[C@H]1C(=O)NC1(c2ccccn2)CC1)c1cc(-c2ccccc2F)on1` (racemic) [Example 3.013, rac-(3R*,4R*)-1-Cyclopropylmethyl-4-{[5-(2-fluoro-phenyl)-isoxazole-3-carbonyl]-amino}-piperidine-3-carboxylic acid (1-pyridin-2-yl-cyclopropyl)-amide] showed an IC50 of 153 nM. This IC50 and that of the compound before are within 1.5-fold of each other.
The same measure for `O=C(N[C@H]1CCN(CC2CC2)C[C@@H]1C(=O)NC1(c2ncccn2)CC1)c1cc(-c2ccc(F)c(F)c2)on1` [Example 7.013, (3S,4S)-1-Cyclopropylmethyl-4-{[5-(3,4-difluoro-phenyl)-isoxazole-3-carbonyl]-amino}-piperidine-3-carboxylic acid (1-pyrimidin-2-yl-cyclopropyl)-amide]: 252 nM.
For the compound `CC(NC(=O)[C@H]1CN(CC2CC2)CC[C@@H]1NC(=O)c1cc(-c2ccc(F)cc2F)on1)C1CCCO1` (stereo partly shown) [Example 4.046], the IC50 came to 290 nM. The IC50 values of the last two compounds are within 1.5-fold of each other.
With `O=C(N[C@@H]1CCN(C2CCCCC2)C[C@H]1C(=O)N[C@H]1C[C@@H]1c1ccccc1)c1cc(-c2c(F)cc(F)cc2F)on1` (single isomer, unassigned) [Example 1.046a] the figure was 474 nM; with `CC(C)(NC(=O)[C@H]1CN(CC2CC2)CC[C@@H]1NC(=O)c1cc(-c2ccc(F)cc2F)on1)c1ncccn1` [Example 4.102], 1 nM; with `O=C(N[C@H]1CCN(Cc2ccc(F)cc2)C[C@@H]1C(=O)NC1(c2ncccn2)CC1)c1cc(-c2ccc(F)cc2F)on1` [Example 2.068], 12 nM.
The same measure for `CC(CNC(=O)[C@@H]1CN(C2CCCCC2)CC[C@H]1NC(=O)c1cc(-c2ccc(F)cc2F)on1)c1ccccc1` (stereo partly shown) [Example 1.06]: 727 nM; for `C[C@@H](NC(=O)[C@@H]1CN(C2CCCCC2)CC[C@H]1NC(=O)c1cn(-c2ccc(F)cc2F)nn1)C1CCC1` (relative stereo) [Example 1.134, (3R*,4R*)-1-Cyclohexyl-4-{[1-(2,4-difluoro-phenyl)-1H-[1,2,3]triazole-4-carbonyl]-amino}-piperidine-3-carboxylic acid ((R)-1-cyclobutyl-ethyl)-amide]: 266 nM; for `CO[C@@H]1CCCC[C@H]1N1CC[C@@H](NC(=O)c2cc(-c3ccc(F)cc3F)on2)[C@H](C(=O)N(C)C)C1` [Example 2.033]: 132 nM.
The same measure for `CC(NC(=O)[C@H]1CN(CC2CC2)CC[C@@H]1NC(=O)c1cc(-c2ccc(F)cc2F)on1)c1ccn[nH]1` (stereo partly shown) [Example 4.023]: 69 nM; for `O=C(N[C@H]1CCN(C2CCCC2)C[C@@H]1C(=O)NC1(c2cccc[n+]2[O-])CC1)c1cc(-c2ccc(F)cc2F)on1` [Example 2.062b]: 14 nM.
Turning to “(3R*,4R*)-1-Cyclopentyl-4-{[3-(2,4-difluoro-phenyl)-isoxazole-5-carbonyl]-amino}-piperidine-3-carboxylic acid ((1S*,2R*)-2-phenyl-cyclopropyl)-amide and (3R*,4R*)-1-Cyclopentyl-4-{[3-(2,4-difluoro-phenyl)-isoxazole-5-carbonyl]-amino}-piperidine-3-carboxylic acid ((1R*,2S*)-2-phenyl-cyclopropyl)-amide [Example 1.148]”, 769 nM corresponded to half-maximal inhibition (IC50). Compared with the last compound, the IC50 is about 55-fold higher.
The same measure for `O=C(N[C@H]1CCN(CC2CC2)C[C@@H]1C(=O)NC1(c2ncccn2)CC1)c1cc(-c2ccc(F)cc2F)no1` [Example 7.006, (3S,4S)-1-Cyclopropylmethyl-4-{[3-(2,4-difluoro-phenyl)-isoxazole-5-carbonyl]-amino}-piperidine-3-carboxylic acid (1-pyrimidin-2-yl-cyclopropyl)-amide]: 8 nM; for `CC1(NC(=O)[C@H]2CN(C3CCCCC3)CC[C@@H]2NC(=O)c2cc(-c3ccc(F)cc3F)on2)CCC1` [Example 4.006]: 149 nM.
The same measure for `O=C(N[C@H]1CCN(CC2CC2)C[C@@H]1C(=O)NC1(C2CC2)CC1)c1cc(-c2ccc(F)cc2F)on1` [Example 4.045]: 164 nM; for `CC(C)(CC(F)(F)F)NC(=O)[C@@H]1CN(C2CCCCC2)CC[C@H]1NC(=O)c1cc(-c2ccc(F)cc2F)on1` [Example 1.08]: 564 nM; for `O=C(N[C@@H]1CCN(CC2CC2)C[C@H]1C(=O)NC1(c2ccccn2)CC1)c1nnc(-c2ccc(F)cc2F)o1` (racemic) [Example 3.016, rac-(3R*,4R*)-1-Cyclopropylmethyl-4-{[5-(2,4-difluoro-phenyl)-[1,3,4]oxadiazole-2-carbonyl]-amino}-piperidine-3-carboxylic acid (1-pyridin-2-yl-cyclopropyl)-amide]: 105 nM.
With `O=C(N[C@@H]1CCN(C2CCCCC2)C[C@H]1C(=O)N1CCOCC1)c1cc(-c2ccc(F)cc2F)on1` (racemic) [Example 1.016, rac-5-(2,4-Difluoro-phenyl)-isoxazole-3-carboxylic acid [(3R*,4R*)-1-cyclohexyl-3-(morpholine-4-carbonyl)-piperidin-4-yl]-amide] the figure was 275 nM; with `C[C@@H](NC(=O)[C@H]1CN(C2CCCCC2)CC[C@@H]1NC(=O)c1cn(-c2ccc(F)cc2F)nn1)c1ccccn1` (single isomer, unassigned) [Example 1.117a, (3S,4S)-1-Cyclohexyl-4-{[1-(2,4-difluoro-phenyl)-1H-[1,2,3]triazole-4-carbonyl]-amino}-piperidine-3-carboxylic acid ((R)-1-pyridin-2-yl-ethyl)-amide or (3R,4R)-1-Cyclohexyl-4-{[1-(2,4-difluoro-phenyl)-1H-[1,2,3]triazole-4-carbonyl]-amino}-piperidine-3-carboxylic acid ((R)-1-pyridin-2-yl-ethyl)-amide], 39 nM; with `COCC(C)(C)NC(=O)[C@H]1CN(C2CCCCC2)CC[C@@H]1NC(=O)c1cc(-c2ccc(F)cc2F)on1` [Example 4.002], 60 nM.
`CN(C)C(=O)[C@@H]1CN(C2CCCCC2)CC[C@H]1NC(=O)c1cc(-c2c(F)cc(F)cc2F)on1` (racemic) [Example 3.005, rac-(3R*,4R*)-1-Cyclohexyl-4-{[5-(2,4,6-trifluoro-phenyl)-isoxazole-3-carbonyl]-amino}-piperidine-3-carboxylic acid dimethylamide] registered an IC50 of 38 nM.
With `CC(C)(CNC(=O)[C@@H]1CN(C2CCC2)CC[C@H]1NC(=O)c1cc(-c2ccc(F)cc2F)on1)c1ccccc1Cl` [Example 4.091], the IC50 came out at 134 nM.
The same measure for `C[C@@H](NC(=O)[C@@H]1CN(C2CCCC2)CC[C@H]1NC(=O)c1cc(-c2c(F)cc(F)cc2F)on1)c1ccccn1` (single isomer, unassigned) [Example 1.122a, (3R*,4R*)-1-Cyclopentyl-4-{[5-(2,4,6-trifluoro-phenyl)-isoxazole-3-carbonyl]-amino}-piperidine-3-carboxylic acid ((R)-1-pyridin-2-yl-ethyl)-amide]: 525 nM; for `C=CCN1CC[C@H](NC(=O)c2cc(-c3ccc(F)cc3F)on2)[C@@H](C(=O)NC2(c3ncccn3)CC2)C1` [Example 2.093]: 26 nM.
Take `O=C(N[C@@H]1CCN(C2CCCCC2)C[C@H]1C(=O)NC(c1ccccn1)C(F)(F)F)c1cc(-c2ccc(F)cc2F)on1` (relative stereo) [Example 1.069, (3R*,4R*)-1-Cyclohexyl-4-{[5-(2,4-difluoro-phenyl)-isoxazole-3-carbonyl]-amino}-piperidine-3-carboxylic acid ((1RS)-2,2,2-trifluoro-1-pyridin-2-yl-ethyl)-amide]: it took 556 nM to reach half-maximal inhibition (IC50).
With `CN(CCO)C(=O)[C@@H]1CN(C2CCCCC2)CC[C@H]1NC(=O)c1cc(-c2ccc(F)cc2F)on1` (racemic) [Example 1.005, rac-(3R*,4R*)-1-Cyclohexyl-4-{[5-(2,4-difluoro-phenyl)-isoxazole-3-carbonyl]-amino}-piperidine-3-carboxylic acid (2-hydroxy-ethyl)-methyl-amide] the figure was 198 nM.
With `O=C(NC1CCN(CC2CC2)CC1C(=O)N1CCCC1c1ncccn1)c1cc(-c2ccc(F)cc2F)on1` (stereo not shown) [Example 4.078] the figure was 64 nM.
